Measurements taken from the kinase profiling compilation of Christmann-Franck et al. (2016).
Where “and” joins values, the source holds several entries; their conditions need not be identical. Identical values can stand only once. Each block holds one compound with its values, some of them ahead of it.

Assays:
Test in all cases: Caliper, Mobility shift assay off-chip
[1] = target: CIT (human) (UniProt O14578)
[2] = target: SPHK1 (human) (UniProt Q9NYA1)
[3] = target: LYN (human) (UniProt P07948)
[4] = target: PRKCA (human) (UniProt P17252)
[5] = target: STK10 (human) (UniProt O94804)
[6] = target: MAPK12 (human) (UniProt P53778)
[7] = target: CDK7 (human) (UniProt P50613)
[8] = target: MAPK3 (human) (UniProt P27361)
[9] = target: DYRK1B (human) (UniProt Q9Y463)
DYRK1B (human), sequence (Q9Y463 whole entry, looked up): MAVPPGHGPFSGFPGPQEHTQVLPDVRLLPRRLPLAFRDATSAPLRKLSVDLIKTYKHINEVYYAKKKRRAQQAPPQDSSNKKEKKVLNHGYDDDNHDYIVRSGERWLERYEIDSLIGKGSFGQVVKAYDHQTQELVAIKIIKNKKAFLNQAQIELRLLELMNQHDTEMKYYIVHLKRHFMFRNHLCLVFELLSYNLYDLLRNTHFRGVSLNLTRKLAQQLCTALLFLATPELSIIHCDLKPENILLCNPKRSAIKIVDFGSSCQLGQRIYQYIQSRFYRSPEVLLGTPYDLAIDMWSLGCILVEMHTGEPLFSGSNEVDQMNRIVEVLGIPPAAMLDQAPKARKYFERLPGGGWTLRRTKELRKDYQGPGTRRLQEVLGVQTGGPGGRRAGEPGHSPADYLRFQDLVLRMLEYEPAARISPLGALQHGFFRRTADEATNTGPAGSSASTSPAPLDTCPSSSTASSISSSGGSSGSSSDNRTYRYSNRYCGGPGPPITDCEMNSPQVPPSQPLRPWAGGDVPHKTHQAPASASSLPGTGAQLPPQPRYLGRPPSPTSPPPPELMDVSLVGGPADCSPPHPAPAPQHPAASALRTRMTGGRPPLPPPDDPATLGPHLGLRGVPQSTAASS

[10] = target: MAPK13 (human) (UniProt O15264)
[11] = target: AXL (human) (UniProt P30530)
[12] = target: PRKACA (human) (UniProt P17612)
[13] = target: MYLK2 (human) (UniProt Q9H1R3)
[14] = target: MKNK2 (human) (UniProt Q9HBH9)
MKNK2 (human), sequence (Q9HBH9 whole entry, looked up): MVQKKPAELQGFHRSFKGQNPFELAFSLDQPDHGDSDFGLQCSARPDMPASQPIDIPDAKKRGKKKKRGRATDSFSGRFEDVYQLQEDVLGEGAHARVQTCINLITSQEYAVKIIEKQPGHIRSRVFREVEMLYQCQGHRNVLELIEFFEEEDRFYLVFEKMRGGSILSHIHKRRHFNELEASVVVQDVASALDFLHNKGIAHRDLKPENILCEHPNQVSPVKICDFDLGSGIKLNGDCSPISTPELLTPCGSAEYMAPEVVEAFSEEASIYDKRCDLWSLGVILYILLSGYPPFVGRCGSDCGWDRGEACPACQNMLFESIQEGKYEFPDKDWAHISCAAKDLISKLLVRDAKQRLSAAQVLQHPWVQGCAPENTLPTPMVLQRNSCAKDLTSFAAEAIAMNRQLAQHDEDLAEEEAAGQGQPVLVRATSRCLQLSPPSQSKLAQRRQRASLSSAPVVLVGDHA

[15] = target: EPHB1 (human) (UniProt P54762)
EPHB1 (human), sequence (P54762 whole entry, looked up): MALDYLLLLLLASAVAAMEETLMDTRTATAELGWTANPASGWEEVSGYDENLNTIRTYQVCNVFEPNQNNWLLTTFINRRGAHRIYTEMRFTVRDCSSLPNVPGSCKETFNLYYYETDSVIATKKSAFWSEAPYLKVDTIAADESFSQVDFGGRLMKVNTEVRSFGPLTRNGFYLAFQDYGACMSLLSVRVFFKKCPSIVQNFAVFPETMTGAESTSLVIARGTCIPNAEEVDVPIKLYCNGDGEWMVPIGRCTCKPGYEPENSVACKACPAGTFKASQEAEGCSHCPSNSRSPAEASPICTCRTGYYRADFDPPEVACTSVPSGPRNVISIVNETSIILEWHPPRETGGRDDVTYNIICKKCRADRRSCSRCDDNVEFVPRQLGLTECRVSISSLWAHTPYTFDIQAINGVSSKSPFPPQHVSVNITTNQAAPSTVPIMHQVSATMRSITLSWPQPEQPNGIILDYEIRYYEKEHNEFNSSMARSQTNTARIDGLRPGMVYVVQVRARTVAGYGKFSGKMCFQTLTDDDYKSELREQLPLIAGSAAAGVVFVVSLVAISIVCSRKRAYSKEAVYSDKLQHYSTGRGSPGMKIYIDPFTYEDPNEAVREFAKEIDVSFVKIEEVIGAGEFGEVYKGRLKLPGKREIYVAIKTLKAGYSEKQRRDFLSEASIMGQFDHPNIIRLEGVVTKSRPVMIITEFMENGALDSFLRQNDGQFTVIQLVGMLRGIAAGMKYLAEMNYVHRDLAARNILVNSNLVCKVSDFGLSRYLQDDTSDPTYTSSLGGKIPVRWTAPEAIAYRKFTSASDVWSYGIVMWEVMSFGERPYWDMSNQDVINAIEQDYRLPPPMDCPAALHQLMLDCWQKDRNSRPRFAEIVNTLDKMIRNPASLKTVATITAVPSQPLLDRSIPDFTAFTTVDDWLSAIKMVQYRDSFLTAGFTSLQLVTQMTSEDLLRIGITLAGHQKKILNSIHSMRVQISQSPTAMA

[16] = target: PTK2 (human) (UniProt Q05397)
[17] = target: MAP4K4 (human) (UniProt O95819)
[18] = target: RPS6KB1 (human) (UniProt P23443)
[19] = target: MAPK10 (human) (UniProt P53779)
[20] = target: PRKCG (human) (UniProt P05129)
[21] = target: PAK7 (human) (UniProt Q9P286)
PAK7 (human), sequence (Q9P286 whole entry, looked up): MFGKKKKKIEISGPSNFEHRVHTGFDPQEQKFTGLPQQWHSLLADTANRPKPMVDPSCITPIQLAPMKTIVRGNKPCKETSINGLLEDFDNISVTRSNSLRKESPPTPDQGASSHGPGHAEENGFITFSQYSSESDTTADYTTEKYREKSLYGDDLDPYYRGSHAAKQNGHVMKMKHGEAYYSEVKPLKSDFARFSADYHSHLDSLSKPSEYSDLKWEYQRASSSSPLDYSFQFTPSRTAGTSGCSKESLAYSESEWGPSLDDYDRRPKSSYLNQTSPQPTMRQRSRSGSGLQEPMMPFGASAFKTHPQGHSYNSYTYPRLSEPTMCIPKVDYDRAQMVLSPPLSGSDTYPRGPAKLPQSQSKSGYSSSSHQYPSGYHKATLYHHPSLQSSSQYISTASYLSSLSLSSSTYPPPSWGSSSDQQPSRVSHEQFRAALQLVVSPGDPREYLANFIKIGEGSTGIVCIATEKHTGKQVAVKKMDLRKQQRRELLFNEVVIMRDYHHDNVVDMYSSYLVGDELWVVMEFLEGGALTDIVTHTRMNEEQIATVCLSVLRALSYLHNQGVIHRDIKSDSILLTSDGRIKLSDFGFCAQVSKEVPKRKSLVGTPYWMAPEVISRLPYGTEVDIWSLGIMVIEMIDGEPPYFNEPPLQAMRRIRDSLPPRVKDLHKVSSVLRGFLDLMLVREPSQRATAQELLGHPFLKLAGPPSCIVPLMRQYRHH

[22] = target: ITK (human) (UniProt Q08881)
[23] = target: FGR (human) (UniProt P09769)
[24] = target: WNK2 (human) (UniProt Q9Y3S1)
[25] = target: FGFR3 (human) (UniProt P22607)
[26] = target: PLK3 (human) (UniProt Q9H4B4)
[27] = target: PDK4 (human) (UniProt Q16654)
PDK4 (human), sequence (Q16654 whole entry, looked up): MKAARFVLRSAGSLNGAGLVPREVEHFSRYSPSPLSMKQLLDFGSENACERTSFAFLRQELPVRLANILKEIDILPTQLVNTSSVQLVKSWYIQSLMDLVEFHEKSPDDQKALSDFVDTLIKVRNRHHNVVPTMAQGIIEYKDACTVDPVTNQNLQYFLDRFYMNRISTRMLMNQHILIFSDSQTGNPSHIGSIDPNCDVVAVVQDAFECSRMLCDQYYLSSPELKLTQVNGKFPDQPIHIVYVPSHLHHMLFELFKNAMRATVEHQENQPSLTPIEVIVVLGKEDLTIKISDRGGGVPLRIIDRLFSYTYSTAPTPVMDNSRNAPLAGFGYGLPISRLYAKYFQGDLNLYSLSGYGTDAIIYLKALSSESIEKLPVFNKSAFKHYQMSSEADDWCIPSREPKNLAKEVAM

[28] = target: CAMK2G (human) (UniProt Q13555)
[29] = target: MINK1 (human) (UniProt Q8N4C8)
[30] = target: GSG2 (human) (UniProt Q8TF76)
[31] = target: AURKA (human) (UniProt O14965)
[32] = target: CSNK1A1 (human) (UniProt P48729)
CSNK1A1 (human), sequence (P48729 whole entry, looked up): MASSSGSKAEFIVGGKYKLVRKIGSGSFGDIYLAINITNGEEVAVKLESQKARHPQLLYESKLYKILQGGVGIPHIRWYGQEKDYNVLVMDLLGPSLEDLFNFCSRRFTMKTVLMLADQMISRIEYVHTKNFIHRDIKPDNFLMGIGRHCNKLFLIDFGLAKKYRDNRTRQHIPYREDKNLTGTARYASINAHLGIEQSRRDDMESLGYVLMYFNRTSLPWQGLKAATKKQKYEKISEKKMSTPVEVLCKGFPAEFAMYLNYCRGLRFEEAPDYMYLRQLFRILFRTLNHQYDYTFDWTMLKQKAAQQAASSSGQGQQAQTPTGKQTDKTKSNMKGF

[33] = target: FGFR4 (human) (UniProt P22455)
FGFR4 (human), sequence (P22455 whole entry, looked up): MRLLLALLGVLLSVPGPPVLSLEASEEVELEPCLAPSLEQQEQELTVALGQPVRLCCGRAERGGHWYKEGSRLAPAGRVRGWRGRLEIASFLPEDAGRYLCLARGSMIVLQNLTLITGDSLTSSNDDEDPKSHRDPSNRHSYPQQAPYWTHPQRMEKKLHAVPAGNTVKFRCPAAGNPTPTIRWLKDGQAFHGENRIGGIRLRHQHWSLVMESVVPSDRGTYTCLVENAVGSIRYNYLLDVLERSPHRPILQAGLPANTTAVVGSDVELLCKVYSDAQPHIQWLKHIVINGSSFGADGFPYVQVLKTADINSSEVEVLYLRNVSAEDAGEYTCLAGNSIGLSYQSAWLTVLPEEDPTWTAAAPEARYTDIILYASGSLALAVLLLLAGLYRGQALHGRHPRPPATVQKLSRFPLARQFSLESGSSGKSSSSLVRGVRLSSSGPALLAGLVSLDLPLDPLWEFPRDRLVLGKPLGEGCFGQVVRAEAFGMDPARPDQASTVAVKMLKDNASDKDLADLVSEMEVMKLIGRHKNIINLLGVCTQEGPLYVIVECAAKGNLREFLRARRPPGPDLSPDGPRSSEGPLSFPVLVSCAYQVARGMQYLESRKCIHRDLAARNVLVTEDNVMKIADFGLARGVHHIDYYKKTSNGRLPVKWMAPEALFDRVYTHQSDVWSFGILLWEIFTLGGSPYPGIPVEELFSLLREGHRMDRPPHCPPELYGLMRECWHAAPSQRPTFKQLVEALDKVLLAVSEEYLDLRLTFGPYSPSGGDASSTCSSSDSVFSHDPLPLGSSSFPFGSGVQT

[34] = target: PRKX (human) (UniProt P51817)
[35] = target: GSK3B (human) (UniProt P49841)

inhibition ([1]; compound 0.001 µM): -2.2%
inhibition ([1]; compound 0.02 µM): -4.4%
inhibition ([2]; compound 0.001 µM): -4.8%
inhibition ([2]; compound 0.02 µM): -4.1%
inhibition ([3]; compound 0.001 µM): -2.2% and 4.1%
inhibition ([3]; compound 0.02 µM): 16% and 9.7%
inhibition ([4]; compound 0.001 µM): 15.9%
inhibition ([4]; compound 0.02 µM): 0.7%
inhibition ([5]; compound 0.001 µM): 6.2%
inhibition ([5]; compound 0.02 µM): 21.3%
inhibition ([6]; compound 0.001 µM): -3.7%
inhibition ([6]; compound 0.02 µM): -4.6%
inhibition ([7]; compound 0.001 µM): -7.5%
inhibition ([7]; compound 0.02 µM): -3.4%
inhibition ([8]; compound 0.001 µM): -4.1%
inhibition ([8]; compound 0.02 µM): -6.1%
inhibition ([9]; compound 0.001 µM): 3.6%
inhibition ([9]; compound 0.02 µM): -0.4%
inhibition ([10]; compound 0.001 µM): -3.3%
inhibition ([10]; compound 0.02 µM): -3.7%
inhibition ([11]; compound 0.001 µM): -0.8%
inhibition ([11]; compound 0.02 µM): 4.1%
inhibition ([12]; compound 0.001 µM): -7.9%
inhibition ([12]; compound 0.02 µM): -10.1%
inhibition ([13]; compound 0.001 µM): -4.8%
inhibition ([13]; compound 0.02 µM): -2.6%
inhibition ([14]; compound 0.001 µM): 0.4%
inhibition ([14]; compound 0.02 µM): 1.4%
inhibition ([15]; compound 0.001 µM): -9.1%
inhibition ([15]; compound 0.02 µM): -6.5%
inhibition ([16]; compound 0.001 µM): -7.1%
inhibition ([16]; compound 0.02 µM): -5.9%
inhibition ([17]; compound 0.001 µM): -2.3%
inhibition ([17]; compound 0.02 µM): 1.2%
inhibition ([18]; compound 0.001 µM): 6.6%
inhibition ([18]; compound 0.02 µM): 10.6%
inhibition ([19]; compound 0.001 µM): -5%
inhibition ([19]; compound 0.02 µM): -4.4%
inhibition ([20]; compound 0.001 µM): 1.2%
inhibition ([20]; compound 0.02 µM): 17.3%
inhibition ([21]; compound 0.001 µM): -2.5%
inhibition ([21]; compound 0.02 µM): 7%
inhibition ([22]; compound 0.001 µM): 2.8%
inhibition ([22]; compound 0.02 µM): 1.9%
inhibition ([23]; compound 0.001 µM): 8.2%
inhibition ([23]; compound 0.02 µM): 25%
inhibition ([24]; compound 0.001 µM): 1.8%
inhibition ([24]; compound 0.02 µM): -0.3%
inhibition ([25]; compound 0.001 µM): 8.1%
inhibition ([25]; compound 0.02 µM): 47.4%
inhibition ([26]; compound 0.001 µM): 3.7%
inhibition ([26]; compound 0.02 µM): -1.3%
inhibition ([27]; compound 0.001 µM): 0.1%
inhibition ([27]; compound 0.02 µM): -0.5%
inhibition ([28]; compound 0.001 µM): 0.2%
inhibition ([28]; compound 0.02 µM): -1.1%
inhibition ([29]; compound 0.001 µM): 0.7%
inhibition ([29]; compound 0.02 µM): 0.1%
inhibition ([30]; compound 0.001 µM): -2.8%
inhibition ([30]; compound 0.02 µM): -0.9%
inhibition ([31]; compound 0.001 µM): 13.3%
inhibition ([31]; compound 0.02 µM): 54.5%
inhibition ([32]; compound 0.001 µM): -8.2%
inhibition ([32]; compound 0.02 µM): -7.8%
inhibition ([33]; compound 0.001 µM): 0%
inhibition ([33]; compound 0.02 µM): -3.4%
inhibition ([34]; compound 0.001 µM): 0.1%
inhibition ([34]; compound 0.02 µM): -1.7%
SMILES: CNC(=O)c1ccccc1Sc1ccc2c(/C=C/c3ccccn3)n[nH]c2c1

inhibition ([1]; compound 0.2 µM): 2.2%
inhibition ([1]; compound 4.0 µM): 29.1%
inhibition ([2]; compound 0.2 µM): -10.4%
inhibition ([2]; compound 4.0 µM): -9.1%
inhibition ([3]; compound 0.2 µM): 67.3% and 70.3%
inhibition ([3]; compound 4.0 µM): 98.3% and 99.7%
inhibition ([4]; compound 0.2 µM): 0.1%
inhibition ([4]; compound 4.0 µM): 28.7%
inhibition ([5]; compound 0.2 µM): 62.1%
inhibition ([35]; compound 0.2 µM): 1.1%
inhibition ([35]; compound 4.0 µM): 23.7%
inhibition ([6]; compound 0.2 µM): -4.2%
inhibition ([6]; compound 4.0 µM): -6.2%
inhibition ([7]; compound 0.2 µM): 87.6%
inhibition ([7]; compound 4.0 µM): 98.8%
inhibition ([8]; compound 0.2 µM): -4.8%
inhibition ([8]; compound 4.0 µM): -0.9%
inhibition ([9]; compound 4.0 µM): 74.7%
inhibition ([10]; compound 0.2 µM): -3.4%
inhibition ([10]; compound 4.0 µM): -4.3%
inhibition ([11]; compound 0.2 µM): 96.8%
inhibition ([11]; compound 4.0 µM): 102%
inhibition ([12]; compound 0.2 µM): 0.6%
inhibition ([12]; compound 4.0 µM): 49%
inhibition ([13]; compound 0.2 µM): 81.9%
inhibition ([14]; compound 0.2 µM): 3.2%
inhibition ([14]; compound 4.0 µM): 28%
inhibition ([15]; compound 0.2 µM): 34.5%
inhibition ([15]; compound 4.0 µM): 89%
inhibition ([17]; compound 4.0 µM): 101%
inhibition ([18]; compound 0.2 µM): 66.4%
inhibition ([18]; compound 4.0 µM): 96.6%
inhibition ([19]; compound 0.2 µM): -2.3%
inhibition ([20]; compound 0.2 µM): 0.1%
inhibition ([20]; compound 4.0 µM): 38.9%
inhibition ([21]; compound 0.2 µM): 20.1%
inhibition ([21]; compound 4.0 µM): 77.7%
inhibition ([22]; compound 0.2 µM): 93.3%
inhibition ([22]; compound 4.0 µM): 101%
inhibition ([23]; compound 0.2 µM): 63.4%
inhibition ([24]; compound 0.2 µM): 1.7%
inhibition ([24]; compound 4.0 µM): -2.1%
inhibition ([25]; compound 0.2 µM): 75%
inhibition ([25]; compound 4.0 µM): 98.4%
inhibition ([26]; compound 0.2 µM): 0.9%
inhibition ([26]; compound 4.0 µM): 0.1%
inhibition ([27]; compound 0.2 µM): 1.6%
inhibition ([27]; compound 4.0 µM): 22.6%
inhibition ([28]; compound 0.2 µM): 49.6%
inhibition ([28]; compound 4.0 µM): 96.2%
inhibition ([29]; compound 0.2 µM): 56.6%
inhibition ([29]; compound 4.0 µM): 99.7%
inhibition ([30]; compound 0.2 µM): 39.2%
inhibition ([30]; compound 4.0 µM): 89.7%
inhibition ([31]; compound 0.2 µM): 31.1%
inhibition ([31]; compound 4.0 µM): 87.3%
inhibition ([33]; compound 0.2 µM): 10.3%
inhibition ([33]; compound 4.0 µM): 62.6%
inhibition ([34]; compound 0.2 µM): 7.7%
inhibition ([34]; compound 4.0 µM): 66.3%
SMILES: CCN(CC)CCNC(=O)c1c(C)[nH]c(/C=C2\C(=O)Nc3ccc(F)cc32)c1C
